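Tested at 5 concentrations; 48 h exposure; 96-well plates; endpoints linearly interpolated, else capped at highest concentration. GI50 is the concentration that inhibits growth by half.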 Calls of active or inactive are those of the source. Cut-off read from the data, not from the text of the source: active = GI50 up to about 1.1 µM and inactive = higher.
Columns and labels:
Experiment in all cases: DTP human tumour cell line panel, 48 h
UACC-257 = test system: UACC-257
BT-549 = test system: BT-549
SK-MEL-28 = test system: SK-MEL-28
NCI-H522 = test system: NCI-H522
UO-31 = test system: UO-31
K562 = test system: K562
A498 = test system: A498
HCT-15 = test system: HCT-15
OVCAR-4 = test system: OVCAR-4
T47D = test system: T47D
SNB-75 = test system: SNB-75
SF-539 = test system: SF-539
SF-295 = test system: SF-295
SN12C = test system: SN12C
MCF7 = test system: MCF7
NCI-H460 = test system: NCI-H460
SW-620 = test system: SW-620
HOP-62 = test system: HOP-62
SK-OV-3 = test system: SK-OV-3

Row | SMILES | GI50 (UACC-257) | GI50 (BT-549) | GI50 (SK-MEL-28) | GI50 (NCI-H522) | GI50 (UO-31) | GI50 (K562) | GI50 (A498) | GI50 (HCT-15) [µM] | GI50 (OVCAR-4) | GI50 (T47D) | GI50 (SNB-75) | GI50 (SF-539) | GI50 (SF-295) | GI50 (SN12C) | GI50 (MCF7) | GI50 (NCI-H460) | GI50 (SW-620) | GI50 (HOP-62) | GI50 (SK-OV-3)
1 | N#CC1(C#N)C2C=CC(C3CCC=C32)C1(C#N)C#N (stereo unspecified) | > 10 µM (inactive) | > 10 µM (inactive) | > 10 µM (inactive) | 2.96 µM (inactive) | > 4.32 µM (inactive) | 3.37 µM (inactive) | > 10 µM (inactive) | > 10 | > 10 µM (inactive) | > 5.33 µM (inactive) | > 10 µM (inactive) | > 10 µM (inactive) | > 10 µM (inactive) | > 10 µM (inactive) | > 8.2 µM (inactive) | > 10 µM (inactive) | 1.77 µM (inactive) | > 10 µM (inactive) | > 10 µM (inactive)
2 | O=C(CC(=O)N1N=C(c2ccccc2)C(/N=N/c2ccc(S(=O)(=O)CCOS(=O)(=O)O)cc2)C1=O)Nc1ccc(Cl)cc1 (stereo unspecified) | > 100 µM (inactive) | > 100 µM (inactive) | > 100 µM (inactive) | 30.9 µM (inactive) | 40.3 µM (inactive) | 7.5 µM (inactive) | > 100 µM (inactive) | 8.61 |  | > 100 µM (inactive) | > 100 µM (inactive) | > 100 µM (inactive) | > 100 µM (inactive) | 86.5 µM (inactive) | > 100 µM (inactive) | > 100 µM (inactive) | > 10 µM (inactive) | > 100 µM (inactive) | > 100 µM (inactive)
3 | CCc1oc2ccccc2c1C(=O)c1cc(Br)c(O)c(Br)c1 [BENZBROMARONE] | 19.3 µM (inactive) | 28.2 µM (inactive) | 41.4 µM (inactive) | 19.9 µM (inactive) | 21.6 µM (inactive) | 30.9 µM (inactive) | 20.5 µM (inactive) | 27.6 | 30 µM (inactive) | 19.9 µM (inactive) | 18.9 µM (inactive) | 17.1 µM (inactive) | 31.8 µM (inactive) | 26 µM (inactive) | 23.7 µM (inactive) | 18.4 µM (inactive) | 35.6 µM (inactive) | 34.3 µM (inactive) | 37.8 µM (inactive)
4 | CCOC(=O)CN1C(=O)NC(C)(c2ccccc2)C1=O (stereo unspecified) | > 100 µM (inactive) | > 100 µM (inactive) | > 100 µM (inactive) | > 100 µM (inactive) | > 100 µM (inactive) | > 100 µM (inactive) | > 100 µM (inactive) | > 100 | > 100 µM (inactive) | > 100 µM (inactive) | > 100 µM (inactive) | > 100 µM (inactive) | > 100 µM (inactive) | > 100 µM (inactive) | > 100 µM (inactive) |  | > 100 µM (inactive) | > 100 µM (inactive) | > 100 µM (inactive)
5 | Oc1c(OCc2nnc(CCCCCCCCc3nnc(COc4ccc5ccccc5c4O)n3Nc3ccccc3)n2Nc2ccccc2)ccc2ccccc12 | 4.21 µM (inactive) | 8.73 µM (inactive) | 2.07 µM (inactive) | 7.08 µM (inactive) | 2.58 µM (inactive) | 0.515 µM (active) | 16.1 µM (inactive) | 11.4 | 5.42 µM (inactive) | 6.43 µM (inactive) | 17.5 µM (inactive) | 3.98 µM (inactive) | 0.301 µM (active) | 13.9 µM (inactive) | 3.52 µM (inactive) | 1.26 µM (inactive) | 10.4 µM (inactive) | 0.261 µM (active) | 9.77 µM (inactive)
6 | CCC12C=CCN3CCC4(c5cc(C(c6ccc(OC)cc6)C6Cc7ccccc7N6)c(OC)cc5N(C)C4C(O)(C(=O)OC)C1O)C32 (stereo unspecified) | 20.5 µM (inactive) | 19.9 µM (inactive) | 30.2 µM (inactive) | 16.4 µM (inactive) | 10.2 µM (inactive) | 3.42 µM (inactive) | 11.6 µM (inactive) | 22 | 9.33 µM (inactive) | 2.9 µM (inactive) | 3.66 µM (inactive) | 21 µM (inactive) | 18.3 µM (inactive) | 37.4 µM (inactive) | 5.19 µM (inactive) | 17.6 µM (inactive) | 21.5 µM (inactive) | 26.5 µM (inactive) | 29.4 µM (inactive)
7 | O=c1[nH]nc(-c2ccccc2)n1/N=C/c1ccc([N+](=O)[O-])o1 | 4.92 µM (inactive) | 6 µM (inactive) | 4.92 µM (inactive) | 1.32 µM (inactive) | 4.32 µM (inactive) | 3.64 µM (inactive) | 9.12 µM (inactive) | 2.21 | 6.65 µM (inactive) | 13.7 µM (inactive) | 16 µM (inactive) | 4.65 µM (inactive) | 10.4 µM (inactive) | 4.37 µM (inactive) | 2.04 µM (inactive) | 5.12 µM (inactive) | 2.49 µM (inactive) | 6.11 µM (inactive) | 9.29 µM (inactive)
8 | O=C1NC(=O)C(c2c[nH]c3ccccc23)=C1c1cn(C(c2ccccc2)(c2ccccc2)c2ccccc2)cn1 | 11.2 µM (inactive) | 12.7 µM (inactive) | 16.2 µM (inactive) | 8.75 µM (inactive) |  | 4.2 µM (inactive) | 5.32 µM (inactive) | 3.66 | 4.06 µM (inactive) | 7.19 µM (inactive) | 10.2 µM (inactive) | 15.4 µM (inactive) | 5.27 µM (inactive) | 5.7 µM (inactive) | 3.05 µM (inactive) | 3.66 µM (inactive) | 8.81 µM (inactive) |  | 14.7 µM (inactive)
9 | CC(=O)OC1C(C)OC(OC2C[C@](O)(C(C)=O)Cc3c(O)c4c(c(O)c32)C(=O)c2ccccc2C4=O)C(F)C1OC(C)=O (stereo partly specified) | 1.8 µM (inactive) | 1.04 µM (active) | 3.4 µM (inactive) | 0.61 µM (active) | 0.115 µM (active) | 1.63 µM (inactive) | 0.791 µM (active) | 0.358 | 3.74 µM (inactive) | 0.522 µM (active) | 0.417 µM (active) | 0.194 µM (active) | 0.13 µM (active) | 0.281 µM (active) | 0.0474 µM (active) | 0.0353 µM (active) | 0.495 µM (active) | 0.367 µM (active) | 0.617 µM (active)
10 | O=C(CCCn1ccnc1[N+](=O)[O-])NCCn1ccnc1 | > 100 µM (inactive) | > 100 µM (inactive) | > 100 µM (inactive) | > 100 µM (inactive) | > 100 µM (inactive) | > 100 µM (inactive) | > 100 µM (inactive) | > 100 |  | > 100 µM (inactive) | > 100 µM (inactive) | > 100 µM (inactive) | > 100 µM (inactive) | > 100 µM (inactive) | > 100 µM (inactive) | > 100 µM (inactive) | > 100 µM (inactive) | > 100 µM (inactive) | > 100 µM (inactive)
11 | OC(CC(CC(O)(C(F)(F)F)C(F)(F)F)=NN=C(CC(O)(C(F)(F)F)C(F)(F)F)CC(O)(C(F)(F)F)C(F)(F)F)(C(F)(F)F)C(F)(F)F | > 10 µM (inactive) | > 10 µM (inactive) | > 10 µM (inactive) | > 10 µM (inactive) |  | > 10 µM (inactive) | > 10 µM (inactive) | > 10 | > 10 µM (inactive) | > 10 µM (inactive) | > 10 µM (inactive) | > 10 µM (inactive) | > 10 µM (inactive) | > 10 µM (inactive) | > 10 µM (inactive) | > 10 µM (inactive) | > 10 µM (inactive) | > 10 µM (inactive) | > 10 µM (inactive)
12 | COc1ccc2c(-c3ccc(O)cc3)c(Oc3ccccc3)c(=O)oc2c1 | > 100 µM (inactive) | 95.9 µM (inactive) | 96.8 µM (inactive) | 8.2 µM (inactive) | 3.13 µM (inactive) | 8.91 µM (inactive) | > 31.4 µM (inactive) | 5.04 | 9.62 µM (inactive) | > 28 µM (inactive) | > 33.9 µM (inactive) | 24.7 µM (inactive) | 25.5 µM (inactive) |  | 4.61 µM (inactive) | 11.9 µM (inactive) |  | 31.1 µM (inactive) | 6.49 µM (inactive)
13 | COCO[C@@H]1C[C@H]2C(=O)N(COC)c3ccccc3C(=O)N2C1 | > 100 µM (inactive) | > 100 µM (inactive) | > 100 µM (inactive) | > 100 µM (inactive) | > 100 µM (inactive) |  | > 100 µM (inactive) | > 100 | > 100 µM (inactive) | > 100 µM (inactive) | > 100 µM (inactive) | > 100 µM (inactive) | > 100 µM (inactive) | > 100 µM (inactive) | > 100 µM (inactive) |  | > 100 µM (inactive) | > 100 µM (inactive) | > 100 µM (inactive)
14 | COC1=NC(NC2OCC(O)C(O)C2O)=C(NC(C)=O)CN1C (stereo unspecified) |  | > 100 µM (inactive) | > 100 µM (inactive) | > 100 µM (inactive) | > 100 µM (inactive) | > 100 µM (inactive) | > 100 µM (inactive) | > 100 | > 100 µM (inactive) | > 100 µM (inactive) | > 100 µM (inactive) | > 100 µM (inactive) | > 100 µM (inactive) |  | > 100 µM (inactive) | > 100 µM (inactive) | > 100 µM (inactive) |  | > 100 µM (inactive)
15 | Cc1ccc([N+](=O)[O-])cc1S(=O)(=O)Nc1ccc(C2=NN(C(=O)c3ccccc3)C(c3ccccc3O)C2)cc1 (stereo unspecified) | 17.3 µM (inactive) | 14 µM (inactive) | 28.2 µM (inactive) | 12.6 µM (inactive) | 16.6 µM (inactive) | 15.3 µM (inactive) | 12.9 µM (inactive) | 13.2 | 15.4 µM (inactive) | 11.8 µM (inactive) | 17.1 µM (inactive) | 17.3 µM (inactive) | 23.4 µM (inactive) | 13.5 µM (inactive) | 13.4 µM (inactive) |  | 30.9 µM (inactive) | 25.3 µM (inactive) | 19.1 µM (inactive)
